Values quoted from earlier work, collected in US20040116403A1, “Superoxide dismutase mimics for the treatment of ocular disorders and diseases” (priority 2002, published 2004).

Key:
IL-6 and MIP-2 = settings: rat stroke model; administration after induction of cerebral ischemia
[1] = rat stroke model; given either before or after induction of cerebral ischemia

CCn1cc[n+](CC)c1C1=C2C=CC3=[N+]2[Mn]24[n]5c1ccc5C(c1n(CC)cc[n+]1CC)=C1C=CC(=[N+]12)C(c1n(CC)cc[n+]1CC)=c1ccc([n]14)=C3c1n(CC)cc[n+]1CC [Compound 1]
expression of pro-inflammatory proteins such as IL-6 and MIP-2 (IL-6 and MIP-2): attenuation of the increased expression of pro-inflammatory proteins

CC[n+]1ccccc1C1=C2C=CC3=[N+]2[Mn]24[n]5c1ccc5C(c1cccc[n+]1CC)=C1C=CC(=[N+]12)C(c1cccc[n+]1CC)=c1ccc([n]14)=C3c1cccc[n+]1CC [Compound 2]
infarct volume [1]: reduces infarct volume
